Measurements reported in patent publication US20140335203A1, “SYNERGISTIC BLENDS OF ANTIMICROBIALS USEFUL FOR CONTROLLING MICROORGANISMS IN INDUSTRIAL PROCESSES” (Hercules Incorporated, priority 2013, published 2014).
Values joined by “and” are separate entries in the source; they are usually repeats but may differ in a detail not shown here. Equal entries are not always repeated. Where two headings read alike, the source gives them in different places.

What was measured:
Lactobacillus plantarum [1] = assay: Minimal Inhibitory Concentration (MIC), two-fold dilution series in 96 well microplate, antimicrobial used alone; format: cell-based; settings: pH 6; for MIC: Lactiplantibacillus plantarum
From the text: While there are various methods known to individuals skilled in the art for measuring levels of antimicrobial activity, in the following examples the endpoint used is known as the Minimal Inhibitory Concentration, or MIC. This is the lowest concentration of a substance or substances which can achieve complete inhibition of growth.
In order to determine the Minimal Inhibitory Concentration, a two-fold dilution series of the antimicrobial is constructed with the dilutions being made in growth media. The dilutions are made in a 96 well microplate such that each well has a final volume of 280 μl of media and antimicrobial. […] After the dilution series is constructed the wells receive an inoculum of microbe suspended in growth media such that the final concentration of microbes in the well is ˜5×10^5 cfu/ml. In these examples the test microbe used is Lactobacillus plantarum. The cultures are incubated at an appropriate temperature for 18-24 hours, and the wells scored as positive or negative for growth based on a visual examination for turbid wells. A turbid well indicates growth has occurred.
Minimal inhibitory concentrations were determined for both chlorine dioxide and citric acid at pH 6 using the protocol described above with Lactobacillus plantarum as the test microbe. Checkerboard synergy plates were constructed as described, the wells inoculated to a final concentration of ˜5×10^5 cfu/ml, incubated for 18-24 hours, and then scored visually for growth/no growth. […] Minimal inhibitory concentrations were determined for both chlorine dioxide and sodium propionate at pH 6 using the protocol described above with Lactobacillus plantarum as the test microbe. Checkerboard synergy plates wore constructed as described, the wells inoculated to a final concentration of ˜5×10^5 cfu/ml, incubated for 18-24 hours, and then scored visually for growth/no growth.
(§1) Minimal inhibitory concentrations were determined for both chlorine dioxide and potassium benzoate at pH 6 using the protocol described above with Lactobacillus plantarum as the test microbe. Checkerboard synergy plates were constructed as described, the wells inoculated to a final concentration of ˜5×10^5 cfu/ml, incubated for 18-24 hours, and then scored visually for growth/no growth.
as §1, with “ascorbic acid” for “potassium benzoate”

Lactobacillus plantarum [2] = assay: Checkerboard synergy plates (MIC in combination, Synergy Index by Kull et al.); format: cell-based; settings: pH 6
Protocol: Minimal inhibitory concentrations were determined for both chlorine dioxide and citric acid at pH 6 using the protocol described above with Lactobacillus plantarum as the test microbe. Checkerboard synergy plates were constructed as described, the wells inoculated to a final concentration of ˜5×10^5 cfu/ml, incubated for 18-24 hours, and then scored visually for growth/no growth. […] Minimal inhibitory concentrations were determined for both chlorine dioxide and sodium propionate at pH 6 using the protocol described above with Lactobacillus plantarum as the test microbe. Checkerboard synergy plates wore constructed as described, the wells inoculated to a final concentration of ˜5×10^5 cfu/ml, incubated for 18-24 hours, and then scored visually for growth/no growth. […] Minimal inhibitory concentrations were determined for both chlorine dioxide and potassium benzoate at pH 6 using the protocol described above with Lactobacillus plantarum as the test microbe. Checkerboard synergy plates were constructed as described, the wells inoculated to a final concentration of ˜5×10^5 cfu/ml, incubated for 18-24 hours, and then scored visually for growth/no growth. […] Minimal inhibitory concentrations were determined for both chlorine dioxide and ascorbic acid at pH 6 using the protocol described above with Lactobacillus plantarum as the test microbe. […]

Weisella confusa = settings: cited from earlier work
fermentation = settings: cited from earlier work

## O=C1O[C@H]([C@@H](O)CO)C(O)=C1O [Ascorbic Acid, ascorbic acid]
Lactobacillus plantarum [1]; read-out: Ascorbic Acid MIC (QB), used alone
  MIC: 10 mg/mL

## O=C(O)CC(O)(CC(=O)O)C(=O)O [Citric Acid, citric acid]
Lactobacillus plantarum [1]; read-out: Citric Acid MIC (QB), used alone
  MIC: 100 mg/mL
Lactobacillus plantarum [1]
  Citric Acid MIC (QB), used alone: 100000 ppm
Lactobacillus plantarum [2]; in combination with ClO2
  Citric Acid MIC (Qb), used in combination: 390-12,500 ppm

## [O][Cl+][O-] [ClO2, chlorine dioxide]
Lactobacillus plantarum [1]; Table 1 (citric acid series)
  ClO2 MIC (QA), used alone: 100 ppm
Lactobacillus plantarum [1]; Table 2 (sodium propionate series)
  ClO2 MIC (QA), used alone: 115 ppm
Lactobacillus plantarum [1]; Table 3 (potassium benzoate series)
  ClO2 MIC (QA), used alone: 115 ppm and 130 ppm
Lactobacillus plantarum [1]; Table 3 (potassium benzoate series), listed as chlorine dioxide
  ClO2 MIC (QA), used alone: 115 ppm and 130 ppm
Lactobacillus plantarum [1]; Table 4 (ascorbic acid series)
  ClO2 MIC (QA), used alone: 67.5 ppm
Lactobacillus plantarum [2]; in combination with citric acid
  ClO2 MIC (Qa), used in combination: 15-60 ppm

## O=C([O-])c1ccccc1.[K+] [Potassium Benzoate, potassium benzoate]
Lactobacillus plantarum [1]
  Potassium Benzoate MIC (QB), used alone: 100000 ppm
Lactobacillus plantarum [1]; listed as potassium benzoate
  Potassium Benzoate MIC (QB), used alone: 100,000 ppm

## CCC(=O)[O-].[Na+] [Sodium Propionate, sodium propionate]
Lactobacillus plantarum [1]
  Sodium Propionate MIC (QB), used alone: 100000 ppm
Lactobacillus plantarum [1]; listed as sodium propionate
  Sodium Propionate MIC (QB), used alone: 100,000 ppm

## Virginiamycin
Weisella confusa
  concentration required to inhibit growth of Weisella confusa: over 25 mg/L
fermentation
  concentration that will suppress fermentation: over 2 mg/L
